Calls of active or inactive are those of the source. The calls are words filed in the database; no cut-off is given here.
Assays:
[1] = biological target: T1, Sodium-dependent serotonin transporter (Homo sapiens, UniProt P31645); test: biochemical; format: cell-based, HEK293
Target sequence in this assay (P31645 whole entry): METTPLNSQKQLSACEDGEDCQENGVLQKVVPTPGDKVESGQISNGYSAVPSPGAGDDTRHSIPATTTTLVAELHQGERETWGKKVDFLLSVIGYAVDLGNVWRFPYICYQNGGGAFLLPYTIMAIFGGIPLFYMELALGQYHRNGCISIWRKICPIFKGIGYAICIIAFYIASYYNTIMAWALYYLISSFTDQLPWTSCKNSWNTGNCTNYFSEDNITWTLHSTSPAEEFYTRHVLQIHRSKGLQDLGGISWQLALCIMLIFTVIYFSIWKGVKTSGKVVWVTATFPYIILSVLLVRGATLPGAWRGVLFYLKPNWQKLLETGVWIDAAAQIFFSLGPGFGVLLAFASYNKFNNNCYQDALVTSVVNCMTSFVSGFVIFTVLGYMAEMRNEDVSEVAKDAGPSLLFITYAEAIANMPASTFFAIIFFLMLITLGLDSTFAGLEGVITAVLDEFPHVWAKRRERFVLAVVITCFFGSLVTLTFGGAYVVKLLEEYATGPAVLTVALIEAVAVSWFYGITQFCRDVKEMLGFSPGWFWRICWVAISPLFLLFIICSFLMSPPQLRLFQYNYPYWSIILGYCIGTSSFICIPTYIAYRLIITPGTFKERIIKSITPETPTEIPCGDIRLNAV
Description: Displacement of [125I]-RTI-55 from human SERT expressed in HEK293 cell membranes after 1 hr by gamma counting method

[2] = biological target: T1, Sodium-dependent serotonin transporter; test: Potency index, ratio of (S)-citalopram Ki to compound Ki for displacement of [125I]-RTI-55 from human SERT expressed in HEK293 cell membranes
Target sequence in this assay (P31645 whole entry, looked up): as the sequence (P31645 whole entry) above

[3] = biological target: T1, Sodium-dependent serotonin transporter; test: Binding affinity to human SERT expressed in HEK293 cells at 1 uM after 1 hr by IRDye 800 CW azide based tandem photoaffinity labeling-biorthogonal conjugation assay; format: cell-based
Target sequence in this assay (P31645 whole entry, looked up): as the sequence (P31645 whole entry) above

[4] = biological target: T1, Sodium-dependent serotonin transporter; test: Binding affinity to human SERT expressed in HEK293 cells at 1 uM preincubated for 1 hr followed by UV light irradiation for 20 mins by IRDye 800 CW azide based tandem photoaffinity labeling-biorthogonal conjugation assay; format: cell-based
Target sequence in this assay (P31645 whole entry, looked up): as the sequence (P31645 whole entry) above

[5] = biological target: T1, Sodium-dependent serotonin transporter; test: Binding affinity to human SERT expressed in HEK293 cells at 1 uM preincubated for 1 hr followed by UV light irradiation for 20 mins in presence of (S)-citalopram by IRDye 800 CW azide based tandem photoaffinity labeling-biorthogonal conjugation assay; format: cell-based
Target sequence in this assay (P31645 whole entry, looked up): as the sequence (P31645 whole entry) above

Structure (SMILES)	Ki [1]	Ratio Ki [2]	Activity [3]	Activity [4]	Activity [5]
C#CCOc1ccc(C(=O)c2ccc(CN(C)CCC[C@@]3(c4ccc(F)cc4)OCc4cc(C#N)ccc43)cc2)cc1	487 nM				
C#CCOc1ccc(C(=O)c2ccc(C(=O)NCc3ccc4c(c3)CO[C@@]4(CCCN(C)C)c3ccc(F)cc3)cc2)cc1	0.16 nM	11	inactive	Active	inactive
CN(C)CCC[C@@]1(c2ccc(F)cc2)OCc2cc(CNC(=O)c3cc(CN=[N+]=[N-])cc(N=[N+]=[N-])c3)ccc21	10.7 nM				
